Patent publication US20230144436A1, “MUSCLE TARGETING COMPLEXES AND USES THEREOF FOR TREATING MYOTONIC DYSTROPHY” (Dyne Therapeutics, Inc., priority 2020, published 2023)

Test system: DMPK
Test: DMPK knockdown by transfected antisense oligonucleotides in DM1 C15 myotubes at 0.5 nM and 50 nM
Format: cell-based
Details: 72 hours; for Normalized DMPK Remaining: relative to vehicle control = 1.00
Procedure, shortened: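 Seven-day-differentiated DM1 C15 myotubes transfected (Lipofectamine MessengerMax) with each oligonucleotide at 0.5 nM or 50 nM final, biological triplicates. After 72 h, DMPK mRNA quantified by qPCR, expressed relative to vehicle-only transfection set to 1.00.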

[1] = 0.5 nM oligonucleotide, qPCR, relative to vehicle control
[2] = 50 nM oligonucleotide, qPCR, relative to vehicle control

Substance	Percent DMPK Reduction (0.5 nM oligonucleotide)	Normalized DMPK Remaining (0.5 nM oligonucleotide)	Percent DMPK Reduction (50 nM oligonucleotide)	Normalized DMPK Remaining (50 nM oligonucleotide)	Percent DMPK Reduction [1]	Normalized DMPK Remaining (0.5 nM oligonucleotide, qPCR)	Percent DMPK Reduction [2]	Normalized DMPK Remaining (50 nM oligonucleotide, qPCR)
414 (UAGAACAUUUCAUAGGCGAA; chemistry not given here) [compound 414]	20.23%	0.80	43.67%	0.56				
459 (GCUUGCUGCCUUCCCAGGCC; chemistry not given here) [compound 459]	1.14%	0.99	81.01%	0.19				
269 (CUGUCCCGGAGACCAUCCCA; chemistry not given here) [compound 269]					35.85%	0.64	50.78%	0.49
348 (AUGAUCUUCAUGGCAUACAC; chemistry not given here) [compound 348]					12.76%	0.87	39.97%	0.60
318 (AGGAGCAGGGAAAGCGCCUC; chemistry not given here) [compound 318]					33.24%	0.67	62.37%	0.38
365 (UCUCAGUGCAUCCAAAACGU; chemistry not given here) [compound 365]					10.88%	0.89	51.34%	0.49
264 (AGGAUGUUGUCGGGUUUGAU; chemistry not given here) [compound 264]					24.19%	0.76	39.48%	0.61
300 (GGCCUCAGCCUCUGCCGCAG; chemistry not given here) [compound 300]					20.12%	0.80	71.28%	0.29
315 (GCUCCUGGGCGGCGCCAGAC; chemistry not given here) [compound 315]					8.52%	0.91	78.79%	0.21
252 (UCUCGGCCGGAAUCCGCUCC; chemistry not given here) [compound 252]					27.88%	0.72	67.46%	0.33
460 (GGUCCAGCAGGAUGUUGUCG; chemistry not given here) [compound 460]	31.78%	0.68	79.93%	0.20				
331 (GGCCUCAGCCUGGCCGAAAG; chemistry not given here) [compound 331]					14.49%	0.86	64.80%	0.35
444 (GCGUCACCUCGGCCUCAGCC; chemistry not given here) [compound 444]	20.02%	0.80	81.27%	0.19				
436 (CCACUUCAGCUGUUUCAUCC; chemistry not given here) [compound 436]	22.40%	0.78	64.20%	0.36				
248 (CAAACUUGCUCAGCAGUGUC; chemistry not given here) [compound 248]					31.45%	0.69	53.93%	0.46
360 (GACAAUAAAUACCGAGGAAU; chemistry not given here) [compound 360]					28.97%	0.71	47.51%	0.52

Substance	Percent DMPK Reduction (0.5 nM oligonucleotide)	Normalized DMPK Remaining (0.5 nM oligonucleotide)	Percent DMPK Reduction (50 nM oligonucleotide)	Normalized DMPK Remaining (50 nM oligonucleotide)	Percent DMPK Reduction [1]	Normalized DMPK Remaining (0.5 nM oligonucleotide, qPCR)	Percent DMPK Reduction [2]	Normalized DMPK Remaining (50 nM oligonucleotide, qPCR)
246 (GGACGGCCCGGCUUGCUGCC; chemistry not given here) [compound 246]					58.25%	0.42	69.30%	0.31
411 (UUGCCCAUCCACGUCAGGGC; chemistry not given here) [compound 411]	22.23%	0.78	67.15%	0.33				
329 (UACACCUGGCCCGUCUGCUU; chemistry not given here) [compound 329]					31.10%	0.69	57.43%	0.43
446 (AGCGGCAGAGAGAGGUGCUC; chemistry not given here) [compound 446]	19.75%	0.80	90.71%	0.09				
477 (CAGCGGCAGAGAGAGGUGCT; chemistry not given here) [compound 477]	4.49%	0.96	86.00%	0.14				
297 (CUCAGGCUCUGCCGGGUGAG; chemistry not given here) [compound 297]					30.13%	0.70	63.07%	0.37
290 (GGCCAUGACAAUCUCCGCCA; chemistry not given here) [compound 290]					42.38%	0.58	75.00%	0.25
317 (AUCCGCUCCUGCAACUGCCG; chemistry not given here) [compound 317]					12.80%	0.87	40.06%	0.60
426 (CTGCAGUUUGCCCAUCCACG; chemistry not given here) [compound 426]	-10.69%	1.11	60.08%	0.40				
323 (UUGAUGUCCCUGUGCACGUA; chemistry not given here) [compound 323]					25.67%	0.74	55.13%	0.45
456 (CCUCAGCCUGGCCGAAAGAA; chemistry not given here) [compound 456]	16.83%	0.83	63.99%	0.36				
337 (GUUUGCCCAUCCACGUCAGG; chemistry not given here) [compound 337]					34.36%	0.66	54.49%	0.46
473 (CUUGUAGUGGACGAUCUUGC; chemistry not given here) [compound 473]	24.09%	0.76	89.16%	0.11				
298 (UGCUUCAUCUUCACUACCGC; chemistry not given here) [compound 298]					28.82%	0.71	60.24%	0.40
284 (CACGUAAUACUCCAUGACCA; chemistry not given here) [compound 284]					24.40%	0.76	46.50%	0.54
359 (UGCACGUGUGGCUCAAGCAG; chemistry not given here) [compound 359]					10.81%	0.89	64.18%	0.36
